Measurements as given in patent US8173640B1, “Compositions and methods for treating, reducing, ameliorating, or preventing infections” (Bausch & Lomb Incorporated, priority 2007, dated 2012).

Tested on: S. aureus (ATCC 29213)
Experiment: MICs of compound having Formula IV and ciprofloxacin alone and in combination
Format: cell-based
Conditions: against S. aureus; alone
Protocol: Compositions having various combinations of concentrations of compound having Formula IV and cirprofloxacin were tested systematically against S. aureus, P. aeruginosa, and E. coli.

SMILES: O=C(O)c1cn(C2CC2)c2cc(N3CCNCC3)c(F)cc2c1=O [Ciprofloxacin, ciprofloxacin]
- effectiveness in words: effective
